In the NIST ThermoML archive (doi:10.1016/j.jct.2018.06.015):

Test: xn = mol fraction of the nth substance listed
Conditions: 100 kPa, Liquid; for speed of sound: Frequency=3 MHz, Single path-length method; for mass density: Vibrating tube method

CCCCOCCOCCO [3,6-dioxa-1-decanol] + CCCCCCCCO
Conditions	mass density, 293.15 K [kg/m3]	mass density, 298.15 K [kg/m3]	mass density, 303.15 K [kg/m3]	mass density, 308.15 K [kg/m3]	mass density, 313.15 K [kg/m3]	speed of sound, 293.15 K [m/s]	speed of sound, 298.15 K [m/s]	speed of sound, 303.15 K [m/s]	speed of sound, 308.15 K [m/s]	speed of sound, 313.15 K [m/s]
x1 = 0.0518	832.225	828.746	825.244	821.725	818.179	1364.4	1347.4	1330.7	1313.9	1297.4
x1 = 0.1019	838.886	835.371	831.834	828.281	824.7	1363.4	1346.4	1329.7	1313	1296.4
x1 = 0.1605	846.645	843.087	839.508	835.909	832.289	1362.8	1345.8	1329.1	1312.5	1296
x1 = 0.1994	851.754	848.167	844.558	840.932	837.284	1362.4	1345.5	1328.8	1312.1	1295.6
x1 = 0.2503	858.438	854.812	851.169	847.507	843.826	1362.1	1345.3	1328.5	1311.9	1295.5
x1 = 0.303	865.322	861.66	857.975	854.271	850.554	1362	1345.2	1328.5	1311.9	1295.4
x1 = 0.4013	878.059	874.317	870.565	866.793	863.012	1362.5	1345.7	1329	1312.4	1296
x1 = 0.4999	890.695	886.882	883.058	879.218	875.365	1363.2	1346.4	1329.7	1313.1	1296.7
x1 = 0.5918	902.338	898.456	894.568	890.661	886.747	1364.5	1347.6	1330.9	1314.3	1297.8
x1 = 0.7043	916.351	912.393	908.423	904.44	900.454	1366.7	1349.8	1333.1	1316.5	1299.9
x1 = 0.8085	929.131	925.094	921.053	916.997	912.939	1369.4	1352.4	1335.7	1319	1302.5
x1 = 0.848	933.965	929.901	925.834	921.75	917.662	1370.8	1353.8	1336.8	1320.1	1303.6
x1 = 0.901	940.359	936.257	932.151	928.029	923.906	1373	1356	1339.2	1322.4	1305.8
x1 = 0.9501	946.262	942.124	937.981	933.818	929.657	1374.3	1357.3	1340.4	1323.7	1307
x1 = 1	952.288	948.1	943.909	939.704	935.503	1378.2	1361.3	1344.5	1326.4	1307.7

CCCCOCCOCCO [3,6-dioxa-1-decanol] + CCCCCCO
Conditions	mass density, 293.15 K [kg/m3]	mass density, 298.15 K [kg/m3]	mass density, 303.15 K [kg/m3]	mass density, 308.15 K [kg/m3]	mass density, 313.15 K [kg/m3]	speed of sound, 293.15 K [m/s]	speed of sound, 298.15 K [m/s]	speed of sound, 303.15 K [m/s]	speed of sound, 308.15 K [m/s]	speed of sound, 313.15 K [m/s]
x1 = 0.0612	830.032	826.42	822.781	819.109	815.428	1323.2	1306.7	1289.7	1273.2	1256.6
x1 = 0.1016	836.858	833.209	829.539	825.839	822.126	1325.7	1309	1292.1	1275.4	1259.1
x1 = 0.1593	846.323	842.636	838.928	835.192	831.439	1329.1	1312.2	1295.4	1278.6	1262.3
x1 = 0.2053	853.619	849.892	846.155	842.384	838.617	1331.8	1314.9	1298.2	1281.3	1265
x1 = 0.251	860.647	856.892	853.123	849.323	845.516	1334.4	1317.5	1301	1283.8	1267.6
x1 = 0.3095	869.401	865.605	861.792	857.954	854.105	1337.5	1320.9	1304.2	1287.1	1271.2
x1 = 0.4054	883.079	879.224	875.359	871.465	867.564	1343.2	1326.3	1309.8	1292.4	1276.4
x1 = 0.5021	896.077	892.169	888.244	884.294	880.34	1348.5	1331.7	1314.9	1297.7	1281.6
x1 = 0.6049	909.164	905.192	901.21	897.205	893.199	1354.2	1337.5	1320.8	1303.3	1287.3
x1 = 0.6982	920.378	916.352	912.316	908.259	904.202	1359.8	1342.7	1326.1	1308.4	1292.7
x1 = 0.801	931.924	927.842	923.754	919.65	915.548	1365.5	1348.7	1331.8	1314.2	1298.2
x1 = 0.8313	935.198	931.096	926.99	922.874	918.76	1367.2	1350.3	1333.3	1315.8	1299.6
x1 = 0.9042	942.783	938.65	934.516	930.365	926.213	1372.5	1354.8	1338.3	1320.2	1304.8
x1 = 1	952.288	948.1	943.909	939.704	935.503	1378.2	1361.3	1344.5	1326.4	1307.7

CCCCOCCOCCO [3,6-dioxa-1-decanol] + CCCCCCCCCCO
Conditions	mass density, 293.15 K [kg/m3]	mass density, 298.15 K [kg/m3]	mass density, 303.15 K [kg/m3]	mass density, 308.15 K [kg/m3]	mass density, 313.15 K [kg/m3]	speed of sound, 293.15 K [m/s]	speed of sound, 298.15 K [m/s]	speed of sound, 303.15 K [m/s]	speed of sound, 308.15 K [m/s]	speed of sound, 313.15 K [m/s]
x1 = 0.0523	835.331	831.923	828.507	825.069	821.625	1393.8	1376.5	1359.8	1343.3	1326.4
x1 = 0.102	840.692	837.244	833.786	830.318	826.838	1391.2	1374.1	1357.4	1340.8	1324
x1 = 0.1579	846.823	843.333	839.841	836.332	832.81	1388.7	1371.5	1354.9	1338.3	1321.7
x1 = 0.207	852.21	848.697	845.172	841.631	838.082	1386.6	1369.3	1352.7	1336	1319.7
x1 = 0.2513	857.155	853.609	850.057	846.484	842.906	1385	1367.4	1350.8	1334.1	1318
x1 = 0.3099	863.89	860.297	856.695	853.085	849.466	1382.7	1365.1	1348.6	1331.8	1315.9
x1 = 0.4046	875.017	871.358	867.688	864.011	860.317	1379.6	1362.3	1345.7	1328.8	1312.8
x1 = 0.5087	887.59	883.854	880.111	876.354	872.591	1376.9	1359.7	1343.1	1326	1310.2
x1 = 0.6073	899.873	896.063	892.242	888.409	884.574	1374.5	1358.4	1341.8	1324.7	1308.1
x1 = 0.7051	912.356	908.464	904.568	900.658	896.746	1373.9	1357.8	1341.3	1323.9	1307.1
x1 = 0.7952	924.132	920.17	916.202	912.22	908.239	1373.4	1357.9	1341.4	1323.9	1306.6
x1 = 0.8515	931.68	927.667	923.651	919.614	915.585	1373.4	1358.6	1342.2	1324.6	1306.5
x1 = 0.9006	938.376	934.318	930.252	926.171	922.107	1374.5	1359.6	1343.1	1325.4	1307.4
x1 = 0.9379	943.482	939.393	935.294	931.189	927.082	1374.9	1360.6	1344.1	1326.3	1307.7
x1 = 1	952.288	948.1	943.909	939.704	935.503	1378.2	1361.3	1344.5	1326.4	1307.7
